Experimental data published in patent US20120034210A1, “COMPOSITIONS FOR POTENTIATING APOPOSIS SIGNALS IN TUMOUR CELLS” (INSTITUT BERGONIE, priority 2008, published 2012).

Columns and labels:
Format in all cases: cell-based, human
[1] = tested on: CD95; experiment: CD95 expression; conditions: 2-APB or BAPTA-AM regimens
Description: This technique allowed detecting the presence of a protein on the cell surface. All the steps took place at 4° C. so as to reduce membrane proteins endocytosis and loss of cell labelling.
Plasma membrane of the cells (10^6 cells per marking) was saturated for 5 minutes in 1 ml PBS containing 1% (w/v) BSA (bovine serum albumin) and 1% (v/v) foetal veal serum (FVS). This solution was used for washings and antibody dilutions.
The cells were incubated for 30 minutes with 50 μl primary antibody (anti-Fas DX2 clone at 10 μg/ml), washed twice with the PBS/BSA/FCS solution, then incubated with 50 μl of a secondary antibody coupled with phycoerythrin for 30 minutes. After 3 washings, the cells were re-suspended in 200 μl PBS/BSA/SVF and analysed immediately by flow cytometry (FACsCalibur, BD Biosciences). The fluorescence intensity was analysed with the Cellquest software.

[2] = tested on: intracellular calcium concentration; experiment: Intracellular Ca2+ concentration, indo-1 (micro)spectrofluorimetry
Description: Principle: [Ca^2+]i was measured by microspectrofluorimetry using a calcium sensitive fluorescent probe: indo-1. When excited at 360 nm wavelength, the so-called monoexcitation/double emission indo-1 probe transmitted back in a spectrum ranging from 400 to 500 nm. Binding of Ca^2+ to indo-1 caused displacement of the emission spectrum after excitation. The emission maximum in the unbound form was located around 480 nm. The emission of the complexed form was around 405 nm. An increase of calcium concentration thus caused the emission to increase to 405 nm and the emission to decrease to 480 nm. The ratio of both fluorescence intensities allowed to be independent from the quantity of the probe and to determine the [Ca^2+]i according to the Grynkiewicz equation:
[Ca^2+]i(nM)=Kd.β×(R−Rmin)/(Rmax−R)
Rmax, Rmin and Kd. β were determined by combining electrophysiology (patch clamp) and spectrofluorimetry. Rmax was determined by placing in the patch pipette a medium containing 10 mM CaCl2. Rmin was obtained by placing as an intrapipette solution a calcium-deprived medium (10 mM EGTA).
The cells were then rinsed with HBSS (800 rpm centrifugation for 2 minutes) and placed in an observation chamber on a glass coverslip. […] The excitation light is supplied by a Xenon lamp (100W). […] The substances to be tested were applied using a glass pipette positioned at some twenty μm of the studied cell and connected to a pneumatic system.
The principle as well as the loading of the cells were identical with the measurement on single cells. In such a case, approx. 40,000 cells were placed in a quartz tub under constant agitation. The tub was then placed in a Hitachi spectrofluorimeter whereof the excitation monochromator was set to 350 nm. […] The signals were transmitted to a computer via an analogue/digital converter. So as to be able to apply the Grynkiewicz equation (see above) and translate the fluorescence ratios measured in calcium values, the calibration parameters were entered into the software. The substances to be tested were applied directly in the tube under constant agitation.

[3] = biological target: caspase-8; experiment: Caspase-8 activation/cleavage

## CC(=O)OCOC(=O)CN(CC(=O)OCOC(C)=O)c1ccccc1OCCOc1ccccc1N(CC(=O)OCOC(C)=O)CC(=O)OCOC(C)=O [BAPTA-AM, 1,2-bis-(o-Aminophenoxy)ethane-N,N,N′,N′-tetraacetic tetra-(acetoxymethyl) acid Ester]
[1]
  expression of CD95: did not modify the expression of CD95
[2]; Raji, BAPTA-AM 10 μM pretreatment
  increase in intracellular calcium in response to extracellular 3 mM Ca2+: smaller increase in the intracellular calcium concentration
[2]; non-cytotoxic concentrations, CD95 stimulation
  CD95-mediated peak of calcium: totally abrogated the CD95-mediated peak of calcium
[2]; pre-incubation of cells
  basal [Ca2+]i: induced a faint decrease in the basal [Ca^2+]i
[3]; T and B-cell lines
  kinetic of caspase-8 cleavage upon CD95L: accelerated the cleavage of the initiator caspase-8
[3]; during 60 minutes treatment, no CD95L
  caspase-8 activation or mitochondrial depolarization by the agent alone: no trace of caspase-8 activation or mitochondrial depolarization was detected
